Consider 9 compounds from patent publication US7399763B2, “8-hydroxy-1-oxo-tetrahydropyrrolopyrazine compounds useful as HIV integrase inhibitors” (Merck & Co., Inc., priority 2002, dated 2008).

As usually defined, the IC95 is the point of the concentration-response curve where the effect stands at 95%. A lower IC95 goes with an effect from little substance.

The test system of this experiment is HIV. Put plainly: Assay for inhibition of HIV replication (acute HIV infection of T-lymphoid cells). The experiment is classed as cell-based. Particulars: Human immunodeficiency virus 1, per Vacca et al. 1994. The method, then:
Assay for Inhibition of HIV Replication
Assays for the inhibition of acute HIV infection of T-lymphoid cells were conducted in accordance with Vacca, J. P. et al., Proc. Natl. Acad. Sci. USA 1994, 91: 4096.
In turn, `CCOC(=O)c1cn2c(c1O)C(=O)N(Cc1ccccc1)CC2` [Example 1, Ethyl 2-benzyl-8-hydroxy-1-oxo-1,2,3,4-tetrahydropyrrolo[1,2-α]pyrazine-7-carboxylate] had an IC95 of at most 20 µM.
Under `CCOC(=O)c1cn2c(c1O)C(=O)N(Cc1ccc(F)cc1)CC2` [Example 3, Ethyl 2-(4-fluorobenzyl)-8-hydroxy-1-oxo-1,2,3,4-tetrahydropyrrolo[1,2-]pyrazine-7-carboxylate] stands at most 20 µM.
Under `CNC(=O)c1cn2c(c1O)C(=O)N(Cc1ccc(F)cc1)CC2` [Example 5, 2-(4-Fluorobenzyl)-8-hydroxy-N-methyl-1-oxo-1,2,3,4-tetrahydropyrrolo[1,2α]pyrazine-7-carboxamide] stands at most 20 µM; under `CCNC(=O)c1cn2c(c1O)C(=O)N(Cc1ccc(F)cc1)CC2` [Example 6], at most 20 µM; under `O=C(NC1CC1)c1cn2c(c1O)C(=O)N(Cc1ccc(F)cc1)CC2` [Example 7, 2-(4Fluorobenzyl)-8-hydroxy-N-cyclopropyl-1-oxo-1,2,3,4-tetrahydropyrrolo[1,2α]pyrazine-7-carboxamide], at most 20 µM.
On to `CCOC(=O)c1cn2c(c1O)C(=O)N(Cc1cccc(Cl)c1)CC2` [Example 8, Ethyl 2(3-chlorobenzyl)-8-hydroxy-1-oxo-1,2,3,4-tetrahydropyrrolo[1,2-α]pyrazine-7-carboxylate], for which the IC95 was at most 20 µM.
With `CN1CCn2cc(C(=O)NCc3ccc(F)cc3)c(O)c2C1=O` [Example 10, N-(4-Fluorobenzyl)-8-hydroxy-2-methyl-1-oxo-1,2,3,4-tetrahydropyrrolo[1,2-α]pyrazine-7-carboxamide], the 95% effect concentration (IC95) was at most 20 µM.
Consider `CNC(=O)c1cn2c(c1O)C(=O)N(Cc1ccc(Cl)cc1)CC2` [Example 16, 2-(4-Chlorobenzyl)-8-hydroxy-N-methyl-1-oxo-1,2,3,4-tetrahydropyrrolo[1,2-α]pyrazine-7-carboxamide], for which the IC95 is at most 20 µM.
The figure for `CNC(=O)c1cn2c(c1O)C(=O)N(Cc1ccc(F)c(F)c1)CC2` [Example 17, 2-(3,4-Difluorobenzyl)-8-hydroxy-N-methyl-1-oxo-1,2,3,4-tetrahydropyrrolo[1,2-α]pyrazine-7-carboxamide] is at most 20 µM.
